# Results as given in PMC5218480 (PLoS ONE, 2017).
# Tested on: MV-4-11 cells
# Test: Gene expression microarray analysis (Affymetrix PrimeView) and GSEA
# Format: cell-based, human
# Design: RFU PODN (11730768_x_at) / Fold change /veh PODN (11730768_x_at) / RFU LINC00158 (11744669_a_at) / Fold change /veh LINC00158 (11744669_a_at) / RFU DUSP10 (11751237_a_at) / Fold change /veh DUSP10 (11751237_a_at) / RFU ID3 (11757404_x_at) / Fold change /veh ID3 (11757404_x_at) / RFU PLEKHG5 (11737974_s_at) / Fold change /veh PLEKHG5 (11737974_s_at) / RFU LRRC4B (11730491_at) / Fold change /veh LRRC4B (11730491_at) / RFU GIMAP4 (11747438_a_at) / Fold change /veh GIMAP4 (11747438_a_at) / RFU KRT8 (11758183_x_at) / Fold change /veh KRT8 (11758183_x_at) / RFU CNN1 (11734310_a_at) / Fold change /veh CNN1 (11734310_a_at) / RFU VPS37D (11726825_at) / Fold change /veh VPS37D (11726825_at) / RFU C10orf10 (11716522_x_at) / Fold change /veh C10orf10 (11716522_x_at) / RFU KIR2DL2 /// KIR2DL4 /// KIR2DL5A /// KIR2DL5B /// KIR2DS1 /// KIR2DS2 /// KIR2DS3 /// KIR2DS4 /// KIR3DL3 /// KIR3DL3 /// KIR3DS1 (11738374_at) / Fold change /veh KIR2DL2 /// KIR2DL4 /// KIR2DL5A /// KIR2DL5B /// KIR2DS1 /// KIR2DS2 /// KIR2DS3 /// KIR2DS4 /// KIR3DL3 /// KIR3DL3 /// KIR3DS1 (11738374_at) / RFU C1QL1 (11718748_at) / Fold change /veh C1QL1 (11718748_at) / RFU TMPRSS4 (11747572_a_at) / Fold change /veh TMPRSS4 (11747572_a_at) / RFU HAMP (11756126_x_at) / Fold change /veh HAMP (11756126_x_at) / RFU RNFT2 (11725882_a_at) / Fold change /veh RNFT2 (11725882_a_at) / RFU NR4A2 (11747474_a_at) / Fold change /veh NR4A2 (11747474_a_at) / RFU ABCC12 (11746883_a_at) / Fold change /veh ABCC12 (11746883_a_at) / RFU TMEM136 (11760407_x_at) / Fold change /veh TMEM136 (11760407_x_at) / RFU CLDN22 /// WWC2 (11732394_at) / Fold change /veh CLDN22 /// WWC2 (11732394_at) / RFU HLA-DPB1 (11760878_x_at) / Fold change /veh HLA-DPB1 (11760878_x_at) / RFU SPINT1 (11716480_a_at) / Fold change /veh SPINT1 (11716480_a_at) / RFU GAP43 (11754022_s_at) / Fold change /veh GAP43 (11754022_s_at) / RFU A4GNT (11735810_at) / Fold change /veh A4GNT (11735810_at) / RFU PRB3 (11715151_x_at) / Fold change /veh PRB3 (11715151_x_at) / RFU TUBB4B (11761932_at) / Fold change /veh TUBB4B (11761932_at) / RFU CAPN14 (11732068_a_at) / Fold change /veh CAPN14 (11732068_a_at) / RFU TMCC2 (11721928_a_at) / Fold change /veh TMCC2 (11721928_a_at) / RFU IRGQ (11745062_a_at) / Fold change /veh IRGQ (11745062_a_at) / RFU FAM174B (11720279_a_at) / Fold change /veh FAM174B (11720279_a_at) / RFU TMPRSS4 (11748680_a_at) / Fold change /veh TMPRSS4 (11748680_a_at) / RFU FAM212B (11763350_a_at) / Fold change /veh FAM212B (11763350_a_at) / RFU PLEKHG5 (11743358_a_at) / Fold change /veh PLEKHG5 (11743358_a_at) / RFU ZSCAN30 (11745921_a_at) / Fold change /veh ZSCAN30 (11745921_a_at) / RFU CMKLR1 (11741424_a_at) / Fold change /veh CMKLR1 (11741424_a_at) / RFU LOC101060620 /// MAPK8IP1 (11723275_at) / Fold change /veh LOC101060620 /// MAPK8IP1 (11723275_at) / RFU SPTSSB (11747773_x_at) / Fold change /veh SPTSSB (11747773_x_at) / RFU PRSS12 (11739890_at) / Fold change /veh PRSS12 (11739890_at) / RFU BIN1 (11741810_x_at) / Fold change /veh BIN1 (11741810_x_at) / RFU WNT11 (11732464_a_at) / Fold change /veh WNT11 (11732464_a_at) / RFU C10orf10 (11716521_a_at) / Fold change /veh C10orf10 (11716521_a_at) / RFU C5orf56 (11738089_at) / Fold change /veh C5orf56 (11738089_at) / RFU CYB561 (11721691_x_at) / Fold change /veh CYB561 (11721691_x_at) / RFU ANKRD19P (11752326_a_at) / Fold change /veh ANKRD19P (11752326_a_at) / RFU OR2T12 /// OR2T33 /// OR2T8 (11738714_s_at) / Fold change /veh OR2T12 /// OR2T33 /// OR2T8 (11738714_s_at) / RFU VCAN (11748164_a_at) / Fold change /veh VCAN (11748164_a_at) / RFU JSRP1 (11732532_at) / Fold change /veh JSRP1 (11732532_at) / RFU KRTAP10-11 (11738290_x_at) / Fold change /veh KRTAP10-11 (11738290_x_at) / RFU MYO3A (11730013_a_at) / Fold change /veh MYO3A (11730013_a_at) / RFU EBF3 (11725865_a_at) / Fold change /veh EBF3 (11725865_a_at) / RFU CAMK2N1 (11719241_x_at) / Fold change /veh CAMK2N1 (11719241_x_at) / RFU C5orf56 (11738088_a_at) / Fold change /veh C5orf56 (11738088_a_at) / RFU OLFML3 (11715873_a_at) / Fold change /veh OLFML3 (11715873_a_at) / RFU LOC100653217 /// NTM (11731650_a_at) / Fold change /veh LOC100653217 /// NTM (11731650_a_at) / RFU MAPK11 (11762145_a_at) / Fold change /veh MAPK11 (11762145_a_at) / RFU FIZ1 (11724087_x_at) / Fold change /veh FIZ1 (11724087_x_at) / RFU OASL (11726364_x_at) / Fold change /veh OASL (11726364_x_at) / RFU SOX15 (11748057_x_at) / Fold change /veh SOX15 (11748057_x_at) / RFU CD79A (11719716_a_at) / Fold change /veh CD79A (11719716_a_at) / RFU HIST1H1D (11736915_at) / Fold change /veh HIST1H1D (11736915_at) / RFU CASKIN2 (11723855_a_at) / Fold change /veh CASKIN2 (11723855_a_at) / RFU LOC730098 (11760151_x_at) / Fold change /veh LOC730098 (11760151_x_at) / RFU OR4N2 (11742367_at) / Fold change /veh OR4N2 (11742367_at) / RFU PRRT2 (11749266_a_at) / Fold change /veh PRRT2 (11749266_a_at) / RFU SNX32 (11753110_a_at) / Fold change /veh SNX32 (11753110_a_at) / RFU CDHR5 (11726645_a_at) / Fold change /veh CDHR5 (11726645_a_at) / RFU RCAN1 (11760418_a_at) / Fold change /veh RCAN1 (11760418_a_at) / RFU FAM167A (11723789_a_at) / Fold change /veh FAM167A (11723789_a_at) / RFU FAM26E (11764081_at) / Fold change /veh FAM26E (11764081_at) / RFU ISYNA1 (11749810_s_at) / Fold change /veh ISYNA1 (11749810_s_at) / RFU ACY1 (11761880_at) / Fold change /veh ACY1 (11761880_at) / RFU 11764098_at / Fold change /veh 11764098_at / RFU SAMD14 (11745864_x_at) / Fold change /veh SAMD14 (11745864_x_at) / RFU NPB (11741838_a_at) / Fold change /veh NPB (11741838_a_at) / RFU TMPRSS6 (11731388_a_at) / Fold change /veh TMPRSS6 (11731388_a_at) / RFU KRTAP10-2 (11738614_at) / Fold change /veh KRTAP10-2 (11738614_at) / RFU ARHGAP8 /// PRR5-ARHGAP8 (11727945_x_at) / Fold change /veh ARHGAP8 /// PRR5-ARHGAP8 (11727945_x_at) / RFU KRTAP5-7 /// NADSYN1 (11734609_at) / Fold change /veh KRTAP5-7 /// NADSYN1 (11734609_at) / RFU RASL12 (11751679_a_at) / Fold change /veh RASL12 (11751679_a_at) / RFU CDKN2B (11736163_a_at) / Fold change /veh CDKN2B (11736163_a_at) / RFU PRF1 (11729649_at) / Fold change /veh PRF1 (11729649_at) / RFU, ZNF638 /// ZNF638-IT1 / Fold change vs veh, ZNF638 /// ZNF638-IT1 / RFU, PANK3 / Fold change vs veh, PANK3 / RFU, SH3YL1 / Fold change vs veh, SH3YL1 / RFU, ZEB2 / Fold change vs veh, ZEB2 / RFU, NRIP1 / Fold change vs veh, NRIP1 / RFU, PTTG1IP / Fold change vs veh, PTTG1IP / RFU, CAPN2 / Fold change vs veh, CAPN2 / RFU, MED14 / Fold change vs veh, MED14 / RFU, SNORA58 / Fold change vs veh, SNORA58 / RFU, C1orf63 / Fold change vs veh, C1orf63 / RFU, LRRFIP1 / Fold change vs veh, LRRFIP1 / RFU, NDUFAF7 / Fold change vs veh, NDUFAF7 / RFU, SLC12A2 / Fold change vs veh, SLC12A2 / RFU, IBTK / Fold change vs veh, IBTK / RFU, ESF1 / Fold change vs veh, ESF1 / Fold change vs veh, TMEM50B / RFU, TAOK1 / Fold change vs veh, TAOK1 / RFU, ACBD3 / Fold change vs veh, ACBD3 / RFU, TMA16 / Fold change vs veh, TMA16 / RFU, RWDD3 / Fold change vs veh, RWDD3 / RFU, BCAT1 / Fold change vs veh, BCAT1 / RFU, EDEM3 / Fold change vs veh, EDEM3 / RFU, TMEM33 / Fold change vs veh, TMEM33 / RFU, WDR75 / Fold change vs veh, WDR75 / RFU, AHCTF1 / Fold change vs veh, AHCTF1 / RFU, TFRC / Fold change vs veh, TFRC / RFU, ZDHHC17 / Fold change vs veh, ZDHHC17 / RFU, NOM1 / Fold change vs veh, NOM1 / RFU, ARL8B / Fold change vs veh, ARL8B / RFU, ZBTB11 / Fold change vs veh, ZBTB11 / RFU, TAMM41 / Fold change vs veh, TAMM41 / RFU, KIAA1704 /// LOC100996395 / Fold change vs veh, KIAA1704 /// LOC100996395 / RFU, ING1 / Fold change vs veh, ING1 / RFU, TRMT61B / Fold change vs veh, TRMT61B / RFU, FUBP3 / Fold change vs veh, FUBP3 / RFU, TP53 / Fold change vs veh, TP53 / RFU, TNKS2 / Fold change vs veh, TNKS2 / RFU, ZFP14 / Fold change vs veh, ZFP14 / RFU, ACTR2 / Fold change vs veh, ACTR2 / RFU, PPP3R1 / Fold change vs veh, PPP3R1 / RFU, PIK3R1 / Fold change vs veh, PIK3R1 / RFU, HNRNPA1 / Fold change vs veh, HNRNPA1 / RFU, RNF170 / Fold change vs veh, RNF170 / RFU, ZNF28 / Fold change vs veh, ZNF28 / RFU, RNGTT / Fold change vs veh, RNGTT / RFU, OGT / Fold change vs veh, OGT / RFU, BRD1 / Fold change vs veh, BRD1 / RFU, MARS / Fold change vs veh, MARS / RFU, ZNF655 / Fold change vs veh, ZNF655 / RFU, FAHD1 / Fold change vs veh, FAHD1 / RFU, BDP1 / Fold change vs veh, BDP1 / RFU, LRRCC1 / Fold change vs veh, LRRCC1 / RFU, ARID1A / Fold change vs veh, ARID1A / RFU, ZNF146 / Fold change vs veh, ZNF146 / RFU, ZNF330 / Fold change vs veh, ZNF330 / RFU, GPN3 / Fold change vs veh, GPN3 / RFU, C9orf123 / Fold change vs veh, C9orf123 / RFU, N4BP2L2 / Fold change vs veh, N4BP2L2 / RFU, ARFIP1 / Fold change vs veh, ARFIP1 / RFU, FAM179B / Fold change vs veh, FAM179B / RFU, BCL10 / Fold change vs veh, BCL10 / RFU, UHRF1BP1L / Fold change vs veh, UHRF1BP1L / RFU, BET1 / Fold change vs veh, BET1 / RFU, CNOT2 / Fold change vs veh, CNOT2 / RFU, ZNF268 / Fold change vs veh, ZNF268 / Fold change vs veh, ZNF507 / RFU, DGCR2 / Fold change vs veh, DGCR2 / RFU, WDSUB1 / Fold change vs veh, WDSUB1 / Fold change vs veh, HSP90B1 /// MIR3652 / RFU, ADSS / Fold change vs veh, ADSS / RFU, GK / Fold change vs veh, GK / RFU, ZNF148 / Fold change vs veh, ZNF148 / RFU, TAF9 / Fold change vs veh, TAF9 / RFU, SLC1A5 / Fold change vs veh, SLC1A5 / RFU, SLMO2 / Fold change vs veh, SLMO2 / RFU, ABCC4 / Fold change vs veh, ABCC4 / RFU, LOC101060439 /// RAP1B / Fold change vs veh, LOC101060439 /// RAP1B / RFU, RFX7 / Fold change vs veh, RFX7 / RFU, GTPBP10 / Fold change vs veh, GTPBP10 / RFU, CNEP1R1 / Fold change vs veh, CNEP1R1 / RFU, BIVM-ERCC5 /// ERCC5 / Fold change vs veh, BIVM-ERCC5 /// ERCC5 / RFU, ILF3 / Fold change vs veh, ILF3 / RFU 11762660_at / Fold change /veh 11762660_at / RFU VCAN (11757783_s_at) / Fold change /veh VCAN (11757783_s_at) / RFU DDX43 (11728927_at) / Fold change /veh DDX43 (11728927_at) / RFU KRT8 (11758188_x_at) / Fold change /veh KRT8 (11758188_x_at) / RFU NKD1 (11759106_at) / Fold change /veh NKD1 (11759106_at) / RFU SRD5A1 (11742802_a_at) / Fold change /veh SRD5A1 (11742802_a_at) / RFU TPSAB1 /// TPSB2 (11721975_s_at) / Fold change /veh TPSAB1 /// TPSB2 (11721975_s_at) / RFU GSTM3 (11746129_a_at) / Fold change /veh GSTM3 (11746129_a_at) / RFU IL23R (11737362_x_at) / Fold change /veh IL23R (11737362_x_at) / RFU TMEM51 (11727254_a_at) / Fold change /veh TMEM51 (11727254_a_at) / RFU PIWIL2 (11732686_x_at) / Fold change /veh PIWIL2 (11732686_x_at) / RFU ORM1 (11744905_x_at) / Fold change /veh ORM1 (11744905_x_at) / RFU CCDC152 (11743942_at) / Fold change /veh CCDC152 (11743942_at) / RFU ECM1 (11717891_a_at) / Fold change /veh ECM1 (11717891_a_at) / RFU IL23R (11748794_a_at) / Fold change /veh IL23R (11748794_a_at) / RFU TNFAIP8L3 (11732012_x_at) / Fold change /veh TNFAIP8L3 (11732012_x_at) / RFU MBOAT4 (11741988_at) / Fold change /veh MBOAT4 (11741988_at) / RFU 11764193_at / Fold change /veh 11764193_at / RFU TMEM53 (11763286_at) / Fold change /veh TMEM53 (11763286_at) / RFU MAGEB2 (11727129_at) / Fold change /veh MAGEB2 (11727129_at) / RFU TMEM200A (11744735_a_at) / Fold change /veh TMEM200A (11744735_a_at) / RFU CCDC152 (11751479_a_at) / Fold change /veh CCDC152 (11751479_a_at) / RFU FAM211A (11726209_a_at) / Fold change /veh FAM211A (11726209_a_at) / RFU RGS16 (11746705_a_at) / Fold change /veh RGS16 (11746705_a_at) / RFU VCAN (11755009_s_at) / Fold change /veh VCAN (11755009_s_at) / RFU RHOB (11743442_s_at) / Fold change /veh RHOB (11743442_s_at) / RFU RGS16 (11720943_a_at) / Fold change /veh RGS16 (11720943_a_at) / RFU RGS16 (11720944_at) / Fold change /veh RGS16 (11720944_at) / RFU, VPS4B / Fold change vs veh, VPS4B / RFU, CREB1 / Fold change vs veh, CREB1 / RFU, DNAJC13 / Fold change vs veh, DNAJC13 / RFU, GNAQ / Fold change vs veh, GNAQ / RFU, CDK5R1 / Fold change vs veh, CDK5R1 / RFU, ZRANB3 / Fold change vs veh, ZRANB3 / RFU, CUL4A / Fold change vs veh, CUL4A / RFU, CCNY / Fold change vs veh, CCNY / RFU, UFL1 / Fold change vs veh, UFL1 / RFU, COG3 / Fold change vs veh, COG3 / RFU, DIAPH2 / Fold change vs veh, DIAPH2 / RFU, SKA2 / Fold change vs veh, SKA2 / RFU, AFF3 / Fold change vs veh, AFF3 / RFU, LMF1 / Fold change vs veh, LMF1 / RFU, IPO11 / Fold change vs veh, IPO11 / RFU, DFFB / Fold change vs veh, DFFB / RFU, FOXP1 / Fold change vs veh, FOXP1 / RFU, CARD8 / Fold change vs veh, CARD8 / RFU, STRN3 / Fold change vs veh, STRN3 / RFU, ADK / Fold change vs veh, ADK / RFU, RASSF2 / Fold change vs veh, RASSF2 / RFU, WIPF1 / Fold change vs veh, WIPF1 / RFU, LARP1B / Fold change vs veh, LARP1B / RFU, RASA1 / Fold change vs veh, RASA1 / RFU, RB1 / Fold change vs veh, RB1 / RFU, PPFIA1 / Fold change vs veh, PPFIA1 / RFU, MAT2A / Fold change vs veh, MAT2A / RFU, CCT5 / Fold change vs veh, CCT5 / RFU, WDR92 / Fold change vs veh, WDR92 / RFU, CUX1 / Fold change vs veh, CUX1 / RFU, TTC7A / Fold change vs veh, TTC7A / RFU, TMEM135 / Fold change vs veh, TMEM135 / RFU, DEPTOR / Fold change vs veh, DEPTOR / RFU, CPM / Fold change vs veh, CPM / RFU, DNAJB6 / Fold change vs veh, DNAJB6 / RFU, CACNA2D3 / Fold change vs veh, CACNA2D3 / RFU, DTX4 / Fold change vs veh, DTX4 / RFU, TFCP2 / Fold change vs veh, TFCP2 / RFU, GMCL1 /// GMCL1P1 / Fold change vs veh, GMCL1 /// GMCL1P1 / RFU, AEBP2 / Fold change vs veh, AEBP2 / RFU, SNHG1 /// SNORD22 /// SNORD25 /// SNORD26 /// SNORD27 /// SNORD28 /// SNORD29 /// SNORD31 / Fold change vs veh, SNHG1 /// SNORD22 /// SNORD25 /// SNORD26 /// SNORD27 /// SNORD28 /// SNORD29 /// SNORD31 / Fold change (Aza/veh), C12orf56 (ProbeSet 11735607_a_at) / Fold change (ACY-1035/veh), C12orf56 (ProbeSet 11735607_a_at) / Fold change (Aza/veh), FGFR1OP (ProbeSet 11751329_s_at) / Fold change (ACY-1035/veh), FGFR1OP (ProbeSet 11751329_s_at) / Fold change (Aza/veh), VPS36 (ProbeSet 11739960_a_at) / Fold change (ACY-1035/veh), VPS36 (ProbeSet 11739960_a_at) / RFU SYPL1 (11715823_x_at) / Fold change /veh SYPL1 (11715823_x_at) / RFU IGFBP7 (11715501_s_at) / Fold change /veh IGFBP7 (11715501_s_at) / RFU REEP3 (11722064_at) / Fold change /veh REEP3 (11722064_at) / RFU IGLL1 (11728026_x_at) / Fold change /veh IGLL1 (11728026_x_at): dose or concentration left out as unconfirmed
# Settings: MV-4-11 cells, 48 hours
compound,measurement,value
Nc1ccc(-c2cccs2)cc1NC(=O)c1ccc2c(c1)cc(C1CC1)n2CCN1CCOCC1 [ACY-1035],RFU TMPRSS4 (11747572_a_at),57.40 RFU
